Laboratory results: US20060004088A1, “Furan derivatives for preventing and curing osteoporosis and pharmaceutical compositions containing the same” (OCT INC., priority 2002, published 2006)

System: osteoclast pregenitor cells
Experiment: Inhibition rates of furan derivatives versus osteoclast formation (TRAP staining)
Format: cell-based, mice
Conditions: TRAP-positive multinucleated cells, untreated control set as 100%
Experimental: First, bone marrow cells were isolated, as follow. After sacrificing 7-9 week female mice by cervical dislocation, femur and tibia were excised aseptically while removing attached soft tissues. After cutting both ends of long bones, 1 ml of an enzyme solution, containing 0.1% collagenase (Gibco), 0.05% trypsin and 0.5 mM EDTA (Gibco), was injected to the bone marrow cavity at one end using a syringe with a 26-guage needle, and bone marrow was then collected. After shaking the recovered bone marrow for 30 min, bone marrow cells were collected, and cultured in α-minimum essential medium (α-MEM) supplemented with 10% FBS for 24 hrs. Then, non-adherent cells were collected, which are osteoclast pregenitors, aliquotted onto culture plates at a density of 2×10^5 cells per well, and cultured for 8 days in α-MEM supplemented with 20 ng/ml of macrophage-colony stimulating factor (M-CSF, Peprotech, USA) and 30 ng/ml RANKL (Peprotech, USA). During the 8 days of culturing, the cells were treated with the Compound 1. Thereafter, osteoclast formation was investigated by fixing the cultured cells and then carrying out TRAP staining, as described in the following Experimental Example 2.2. In addition, resorption activity of osteoclasts was investigated by measuring the absorption area after removing osteoclasts in cultures in calcium phosphate-coated plates, as described in Experimental Example 2.3, below.
After cell culture, the adherent cells were washed with PBS, and TRAP staining was performed, as follows. After being fixed with citrate-acetate-formaldehyde for 5 min, the cells were incubated for 1 hr in acetate buffer (prewarmed at 37° C., pH 5.0) containing naphthol AS-BI phosphate, fast Garnet GBC and 7 mM tartrate buffer (pH 5.0). TRAP-positive multinucleated cells having 3 or more nuclei were considered as osteoclasts.
Osteoclast pregenitor cells were isolated, and their differentiation to mature osteoclasts was induced, according to the same method as in the Experimental Example 2-1, while treated with each of the furan derivatives of the present invention. According to the same method as in the Experimental Example 2-2, TRAP staining performed, and TRAP-positive multinucleated cells were counted. An inhibition rate of each furan derivative against osteoclast formation was expressed as percentage, wherein the number of stained cells in a control not treated the furan derivative was arbitrarily set as 100% (Tables 14 to 16).

SMILES | Inhibition rate against osteoclast formation, % (0.1 μM) | Inhibition rate against osteoclast formation, % (1 μM) | Inhibition rate against osteoclast formation, % (10 μM)
COc1ccccc1NC(=O)c1ccc(COc2ccc(C(C)(C)C)cc2)o1 [Compound 189] | 0% | 0% | 48.99%
O=C(O)c1ccc(CSCc2ccccc2)o1 [Compound 120] | 0% | 0% | 27.99%
O=C(Nc1ccc(I)cc1)c1ccc(COc2ccccc2Br)o1 [Compound 190] | 0% | 0% | 5.12%
Cc1cc(OCc2ccc(C(=O)Nc3cccc(C)c3C)o2)ccc1Cl [Compound 172] | 0% | 0% | 11.08%
Cc1ccc(OCc2ccc(C(=O)Nc3ccc(F)cc3)o2)c([N+](=O)[O-])c1 [Compound 147] | 6.11% | 19.4% | 99.72%
COC(=O)c1ccc(CNC(C)(C)C)o1 [Compound 91] | 0% | 0% | 9.89%
CC(=O)Nc1cccc(NC(=O)c2ccc(COc3c(F)c(F)c(F)c(F)c3F)o2)c1 [Compound 187] |  | 37.05% | 36.74%
O=Cc1ccc(COC(=O)Nc2cccc(Cl)c2)o1 [Compound 49] | 0% | 10% | 0%
O=C(O)c1ccc(COc2ccccc2Cl)o1 [Compound 107] | 0% | 0% | 32%
CCCc1ccc(OCc2ccc(C(=O)Nc3cc(Cl)ccc3Cl)o2)cc1 [Compound 170] | 0% | 0% | 16.31%
Cc1cc(OCc2ccc(C(=O)Nc3ccc(Cl)cc3)o2)ccc1Cl [Compound 173] | 0% | 0% | 8.03%
COc1ccccc1OCc1ccc(C(=O)Nc2ccc(C)c(C)c2)o1 [Compound 175] | 0% | 0% | 33.33%
O=C(O)c1ccc(COc2cc(Cl)ccc2Cl)o1 [Compound 109] | 0% | 0% | 3.25%
O=Cc1ccc(COC(=O)Cc2c(F)cccc2Cl)o1 [Compound 34] | 0% | 16.7% | 36.7%
C=CCc1ccc(OCc2ccc(C(=O)OC)o2)c(OC)c1 [Compound 59] | 0% | 0% | 15.95%
COC(=O)c1ccc(CN(C)C)o1 [Compound 85] | 0% | 0% | 3.75%
COc1ccc(NC(=O)c2ccc(COc3ccccc3Br)o2)c(OC)c1 [Compound 188] | 0% | 0% | 7.6%
CC(C)c1ccc(OCc2ccc(C(=O)O)o2)cc1 [Compound 114] | 0% | 0% | 4.2%
COC(=O)c1ccc(COc2ccc(I)cc2)o1 [Compound 79] | 0% | 0% | 34.65%
CC(=O)c1ccc(NC(=O)c2ccc(COc3cccc4ccccc34)o2)cc1 [Compound 160] | 0% | 0% | 38.96%
COc1ccccc1OCc1ccc(C(=O)OC(C)C)o1 [Compound 94] | 0% | 0% | 5.9%
COC(=O)c1ccc(COc2ccc(Cl)cc2)o1 [Compound 80] | 0% | 0% | 15.19%
O=Cc1ccc(COC(=O)Cc2ccsc2)o1 [Compound 36] | 0% | 6.67% | 30%
Cc1ccc(F)c(NC(=O)c2ccc(COc3ccc(C)cc3[N+](=O)[O-])o2)c1 [Compound 155] | 0% | 0% | 27.92%
O=C(O)c1ccc(COc2cccc3ccccc23)o1 [Compound 117] | 0% | 0% | 5.86%
O=C(O)c1ccc(COc2cccc(Cl)c2)o1 [Compound 112] | 0% | 0% | 7.79%
O=C(c1ccc(COc2cc(Cl)ccc2Cl)o1)N1CCCCCC1 [Compound 133] | 0% | 0% | 0.5%
O=Cc1ccc(COC(=O)Cc2ccc(F)cc2F)o1 [Compound 39] | 0% | 10% | 56.67%
COc1ccc(NC(=O)c2ccc(COc3cc(Cl)ccc3Cl)o2)c(OC)c1 [Compound 145] | 0% | 5.98% | 83.3%
